Calls of active or inactive are those of the source.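 The calls were made as follows: active = signal decrease with fitted half-maximal dose at or below ten times the highest valid tested dose; inconclusive = poor fit, or flat fit at 30 to 70% inhibition; inactive = the rest.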
These compounds were tested against Zinc finger protein mex-5 (Caenorhabditis elegans) (UniProt Q9XUB2) (assay: inhibitors of MEX-5 RNA binding, dose response, biochemical, fluorescence polarization, C. elegans, cherry-picked, round 3 (AID 493250)). Details: purified MEX-5-MBP, FITC-TCR2 RNA fluorescence polarization.
Zinc finger protein mex-5 (Caenorhabditis elegans), sequence (Q9XUB2 whole entry, looked up): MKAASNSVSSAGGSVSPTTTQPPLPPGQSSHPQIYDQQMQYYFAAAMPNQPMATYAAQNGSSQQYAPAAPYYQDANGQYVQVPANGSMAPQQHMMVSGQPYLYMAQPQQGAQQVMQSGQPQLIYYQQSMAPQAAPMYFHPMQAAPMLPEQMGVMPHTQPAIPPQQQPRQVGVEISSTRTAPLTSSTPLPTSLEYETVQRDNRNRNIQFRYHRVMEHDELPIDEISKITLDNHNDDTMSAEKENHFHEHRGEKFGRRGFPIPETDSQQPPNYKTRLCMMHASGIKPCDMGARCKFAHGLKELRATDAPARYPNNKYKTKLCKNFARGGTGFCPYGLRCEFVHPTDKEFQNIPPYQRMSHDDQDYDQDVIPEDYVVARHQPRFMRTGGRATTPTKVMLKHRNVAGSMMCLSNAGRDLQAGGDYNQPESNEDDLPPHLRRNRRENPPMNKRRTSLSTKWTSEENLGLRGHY

Row | SMILES | AC50
1 | CN1CC=C2C(C#N)=C(N)C(C#N)(C#N)C(Cc3ccccc3)C2C1 (centres undefined) | 4.69 µM
2 | CCCOc1cc(N(CC)CC)ccc1/C=C(/C#N)c1nc2ccc(C)cc2[nH]1 | 6.33 µM
3 | COc1ccccc1/C=C/C=C1\Oc2c(ccc(O)c2CN(C)C)C1=O | 2.28 µM
4 | COC(=O)C1=COC(C)C2CN3CCc4c([nH]c5ccccc45)C3CC12 (centres undefined) | 4.21 µM
5 | Nc1nc(Cl)nc2ccc(Br)cc12 | > 10 µM (inactive)
6 | CCN1C(=O)c2cccc3c(NC(=O)C4CCCCC4)ccc1c23 | 6.96 µM
7 | CCOc1cc(/C=C2\CCCc3c2nc2ccccc2c3C(=O)O)ccc1OC | 0.906 µM
8 | C=CCn1c(=O)[nH]c2nc3cc(N=CN(C)C)c(C)cc3nc2c1=O | 5.73 µM
9 | COC(=O)c1ccc2c(c1)SC1=C(CCCC1=O)N2 | 5.95 µM
10 | Cc1nc2nc(-c3ccc(Cl)cc3)cn2nc1C | 9.89 µM

Same assay, conditions: purified MEX-5-MBP, FITC-TCR2 RNA fluorescence polarization; at 10 µM (top of the series)

Row | SMILES | activity change, negative = inhibition
11 | CCOc1cc(/C=N/Nc2nc(=O)[nH]nc2C)ccc1O | inactive
12 | COC(=O)c1cc2c(-c3ccccc3)c(C)c3ccccn3c-2c1C(=O)OC | inactive
13 | COc1ccc(CC(=O)NNc2ncnc3c2cnn3C)cc1OC | inactive
14 | O=c1[nH]nc(CNc2ccc(OC(F)(F)F)cc2)c2ccccc12 | inactive
15 | COc1ccc(CCn2c(=N)c(C(=O)NCC3CCCO3)cc3c(=O)n4cccc(C)c4nc32)cc1 (centres undefined) | inactive
16 | COc1ccc(N=C2S/C(=C\c3ccc(N4CCOCC4)o3)C(=O)N2CCc2c[nH]c3ccccc23)cc1 | inactive
17 | Cc1cccc(C(=O)NNC(=O)c2csc(N3CCOCC3)n2)c1C | inactive
18 | COc1ccc(OC)c(Nc2nc(-c3ccc(O)c(O)c3)cs2)c1 | inactive
19 | COc1ccc(NC(=O)c2cccs2)cn1 | inactive
20 | COc1cccc(/C=N/NC(=O)N/N=C/c2cccc(OC)c2O)c1O | inactive
21 | O=C(O)c1[nH]c2ccccc2c1C(c1cc(Br)ccc1O)c1c(C(=O)O)[nH]c2ccccc12 | inactive
22 | CN1CCc2c(sc(NC(=O)c3ccc(S(=O)(=O)N4CCCC4)cc3)c2C(N)=O)C1 | inactive
23 | CC(C)(C)N(CC#CCC(O)(c1ccccc1)c1ccccc1)CCO | inactive
24 | C#CCOCCOCCOCCNc1nc(N2CCN(C(=O)[C@H]([C@@H](C)CC)n3cc([C@@H](N)CO)nn3)CC2)nc(N2CCN(C(=O)[C@H]([C@@H](C)CC)n3cc([C@@H](N)CO)nn3)CC2)n1 | inactive
25 | CC(=O)N1CCc2c(sc(NC(=O)C3CCCN3S(=O)(=O)c3cccs3)c2C#N)C1 (centres undefined) | inactive
26 | CCOC(=O)C1CSc2[nH]c(=O)sc2C1c1ccccc1 (centres undefined) | inactive
27 | O=c1[nH]nc(CNc2ccc(Cl)cc2Cl)c2ccccc12 | inactive
28 | Nc1nonc1C(=O)N/N=C/c1cc(Br)ccc1O | inactive
29 | Cc1ccc2c(c1)c(C1=NC(=S)NC1=O)c(O)n2C | inactive
30 | COc1ccccc1N1C(=O)S/C(=C\c2cccs2)C1=O | inactive
31 | CNC(=O)c1c(NC(=O)c2nc3ccccc3s2)sc2c1CCC2 | inactive

Row | SMILES | activity change, negative = inhibition
32 | N=C1C(c2nc3ccccc3[nH]2)=C(O)CN1c1ccccc1 | inactive
33 | CC1=C(C(=O)OCc2ccccc2)C(c2cccc([N+](=O)[O-])c2)NC(=O)N1C (centres undefined) | inactive
34 | N#CCCn1c2ccccc2c2nc3ccccc3nc21 | inactive
35 | COc1ccc(NC(=O)/C=C/c2cccc(C(F)(F)F)c2)cn1 | inactive
36 | CCOc1cc(/C=N/n2c(C)nc3ccccc3c2=O)ccc1O | inactive
37 | COCc1cc(C)nc(N/N=C/c2ccc(-c3cc(C(=O)O)ccc3Cl)o2)c1C#N | inactive
38 | Cc1ccc(C(=O)N/C(=C\c2ccc(-c3cccc([N+](=O)[O-])c3)o2)C(=O)NCCCN(C)C)cc1 | inactive
39 | O=c1[nH]cnc2c1C(c1ccccc1)c1c(nc[nH]c1=O)O2 | inactive
40 | CS(=O)(=O)c1nsc2nc(=O)c(/C=C3\C=Nc4ccccc43)c(N)n12 | inactive
41 | Oc1cccc(NC(=S)N=Nc2c(O)[nH]c3ccccc23)c1 | inactive
42 | COc1cc2c(cc1OC)[C@@H](Cc1ccc(OCCC#N)cc1)N(C)CC2 | inactive
43 | NS(=O)(=O)c1ccc(N=Nc2ccc(=O)[nH]c2O)cc1 | inactive
44 | COc1cc2c3c(c1OC)-c1cc(O)ccc1CC3NCC2 (centres undefined) | inactive
45 | Cc1nc2ccc(NC(=O)NC(=O)c3c(Cl)cccc3Cl)cc2o1 | inactive
46 | CC(C)C(=O)OCC(=O)Nc1ccc2c(c1)CCC2 | inactive
47 | CCCCn1c(N)c(N(CCOC)C(=O)c2ccc(Br)o2)c(=O)[nH]c1=O | inactive
48 | COc1ccc(OC)c(-n2c(-c3cc(-c4ccco4)[nH]n3)n[nH]c2=S)c1 | inactive
49 | CCc1nc2ccccc2c(=O)n1/N=C/c1ccc(OC)cc1 | inactive
50 | COC(=O)c1ccc(-c2ccc(C(c3c(C)[nH][nH]c3=O)c3c(C)[nH][nH]c3=O)o2)cc1 | inactive
51 | NC(=O)C(=O)N/N=C/c1c2ccccc2cc2ccccc12 | inactive
52 | O=C(O)c1ccc2cccnc2n1 | inactive

Row | SMILES | activity change, negative = inhibition
53 | Nc1ccccc1C(=O)NNC(=O)C(=O)/C=C(\O)c1ccccc1 | inactive
54 | COc1ccc2c(c1)-c1ccccc1S(=O)(=O)N2C(C)=O | inactive
55 | Oc1c(Cl)cc(Cl)c2c1NCCC2 | inactive
56 | CCC(=O)N(CC)C1=C(O)c2ccccc2C(=O)C1=O | inactive
57 | Cc1c(CN2CCCC(C)C2)c(O)n(CCO)c(=O)c1C#N (centres undefined) | inactive
58 | CCC(COC(C)=O)Nc1nc2c([nH]1)c(=O)n(C)c(=O)n2C (centres undefined) | inactive
59 | Cc1cc(C)c2ccc(=S)[nH]c2n1 | inactive
60 | CCC(=O)NCCc1nc2ccccc2n1Cc1ccccc1 | inactive
61 | O=C(O)c1cc(Oc2ccc(C(F)(F)F)cc2Cl)ccc1[N+](=O)[O-] | inactive
62 | O=C(NNC(=O)c1ccco1)c1csc(N2CCOCC2)n1 | inactive
63 | COc1nc(N/N=C/c2ccc(-c3ccccc3[N+](=O)[O-])o2)nc(N2CCOCC2)n1 | inactive
64 | CCc1nnc2c(N(C)C)nc3ccccc3n12 | inactive
65 | COc1cc(/C=N/NC(=O)c2ccc(=O)[nH]n2)ccc1O | inactive
66 | C=CCn1c(O)c(N=NC(=S)Nc2cccc(C)c2)c2ccccc21 | inactive
67 | Cc1cccn2c(=O)c3cc(C(=O)NC(C)C)c(=N)n(Cc4ccncc4)c3nc12 | inactive
68 | O=C(O)c1ccc(NC2=C(Cl)C(=O)c3ccccc3C2=O)cc1 | inactive
69 | COC(=O)c1ccc(CC(=O)c2c(C)cc(O)cc2O)o1 | inactive
70 | O=C1N=C(N2C=CC(=C3C=CNC=C3)C=C2)/C(=C/N=NC(=O)c2ccccc2)S1 | inactive
71 | CN1/C(=C\C=C(/C#N)C(=O)Nc2ccccc2F)C(C)(C)c2ccccc21 | inactive
72 | O=C(Nc1nccs1)c1ccc(-c2ccc(Cl)cc2)o1 | inactive
73 | COc1ccccc1NCc1cc(=O)oc2c(C)c(O)ccc12 | inactive

Row | SMILES | activity change, negative = inhibition
74 | O=C1c2cccc3cccc(c23)C(=O)N1Cc1ccccc1 | inactive
75 | COc1ccc(/C=N/NC(=O)c2ccc(=O)[nH]n2)cc1OC | inactive
76 | COC(=O)c1ccccc1N=Nc1c(N)n[nH]c1N | inactive
77 | CCn1c(C)nc2c1C(=O)c1ccccc1C2=O | inactive
78 | COc1cc(/C=C2\CCCc3c2nc2ccccc2c3C(=O)O)cc(OC)c1O | inactive
79 | COc1cccc(NCc2cc(=O)oc3cc(C)c(C(C)C)cc23)c1 | inactive
80 | CCOC(=O)c1cnc(SCC(=O)NNC(=O)c2ccco2)nc1N | inactive
81 | CN1CN(C)c2cccc3cccc1c23 | inactive
82 | COc1ccc(N(CCC#N)C(=O)/C(C#N)=C/c2cccs2)cc1 | inactive
83 | CCS(=O)(=O)c1ccc2oc(=O)c(/C=C(\O)c3ccc(Cl)cc3)nc2c1 | inactive
84 | COc1ccccc1N1C(=O)C2C(C(=O)c3ccccc3)=NN(c3ccccc3OC)C2C1=O (centres undefined) | inactive
85 | COCCNC(=S)NNC(=O)c1cccs1 | inactive
86 | O=C1S/C(=C\c2cccs2)C(=O)N1c1ccc(O)cc1 | inactive
87 | O=C(O)c1cccc(NC(=S)N/N=C/c2c[nH]c3ccccc23)c1 | inactive
88 | CCCc1cc(C(=O)Cc2ccc(C(=O)OCC)o2)c(O)cc1O | inactive
89 | CC(=O)Nc1ccc(-c2csc(Nc3cccc(C)n3)n2)cc1 | inactive
90 | O=c1[nH]c2ccccc2n1Cc1ccc(Cl)cc1 | inactive
91 | O=C(NNC(=O)c1ccccc1Cl)c1csc(N2CCOCC2)n1 | inactive
92 | COc1cc(/C=C2/C(C)=C(C#N)c3nc(N)c(C#N)c(C)c32)ccc1OCC(=O)O | inactive
93 | O=C(O)CCSc1nc2ccccc2n1Cc1ccccc1 | inactive
94 | O=c1c(OC2OC(CO)C(O)C(O)C2O)c(-c2ccc(O)c(O)c2)oc2cc(O)cc(O)c12 (centres undefined) | inactive

Source: PubChem BioAssay AID493250 (Broad Institute, 2011)
